Data as given in patent US6806229B1, “Herbicidally active pyridine sulfonyl urea derivatives” (LG Life Sciences, priority 2003, dated 2004).
Read-outs that look alike come from different tables or passages of the source.

Assays:
[1] = tested on: Oryza sativa; assay: Phytotoxicity to rice (direct-seeded and transplanted) in paddy condition, greenhouse pot test; assay type: in vivo; details: visual rating after two weeks; for Phytotoxicity, Oryza sativa, Seed: direct-seeded rice, treated 5 days after sowing; for Phytotoxicity, Oryza sativa, Transplanted: transplanted rice seedlings, treated 5 days after transplanting
Text: (§1) Pots having a surface area of 150 cm^2 were filled with a small amount of fertilizer and sterilized paddy field soil in a muddy state with a depth of 5 cm. Five (5) seeds of pre-germinated rice were directly sown on the soil surface and three (3) rice seedlings (2˜3 leaves) prepared in advance were transplanted in a depth of 2 cm in each pot. In another pot, seeds of barnyardgrass were sown and incorporated into the surface layer of soil. After sowing and transplanting of rice plant and sowing of barnyardgrass, the pots were flooded with water 3 cm deep and kept in a greenhouse. The rice plant was treated with the chemicals 5 days after sowing or transplanting, and barnyardgrass was treated with the chemicals at the pre-emergence (5 days after from sowing) and post-emergence stage (at the three-leaf stage, usually after 15 days from sowing).
(§2) Suitable herbicidal compositions were prepared by mixing and dissolving 1 part by weight of the active compound with 5 parts by weight of acetone and 1 part by weight of alkylaryl polyglycolether as an emulsifier and then diluting with water to the predetermined concentration. Application was made by dropping the herbicide solutions onto the water surface of the pots.

[2] = tested on: Echinochloa crus-galli; assay: Herbicidal activity to barnyardgrass in paddy condition, pre- and post-emergence, greenhouse pot test; assay type: in vivo; details: for pest or weed control at 5 g/ha / pest or weed control at 10 g/ha / pest or weed control at 20 g/ha / pest or weed control at 30 g/ha: Echinochloa crus-galli, 336 h, visual rating after two weeks
Text: as §1, §2

[3] = 80 g/ha, 0 = none, 100 = complete death
[4] = post-emergence, three-leaf stage, read-out: Herbicidal activity, Echinochloa crus-galli, Post-emergence (3-Leaf stage)
[5] = pre-emergence (5 days after sowing), read-out: Herbicidal activity, Echinochloa crus-galli, Pre-emergence
[6] = 20 g/ha, post-emergence, three-leaf stage, read-out: Herbicidal activity, Echinochloa crus-galli, Post-emergence (3-Leaf stage)
[7] = 20 g/ha, pre-emergence (5 days after sowing), read-out: Herbicidal activity, Echinochloa crus-galli, Pre-emergence
[8] = pre-emergence (5 days after sowing), 0 = no activity, 100 = complete death, read-out: Herbicidal activity, Echinochloa crus-galli, Pre-emergence

SMILES | Phytotoxicity, Oryza sativa, Seed ([1]; 10 g/ha) | Phytotoxicity, Oryza sativa, Transplanted ([1]; 10 g/ha) | Phytotoxicity, Oryza sativa, Seed ([1]; 20 g/ha) | Phytotoxicity, Oryza sativa, Transplanted ([1]; 20 g/ha) | Phytotoxicity, Oryza sativa, Seed ([1]; 40 g/ha) | Phytotoxicity, Oryza sativa, Transplanted ([1]; 40 g/ha) | Phytotoxicity, Oryza sativa, Seed [1, 3] | Phytotoxicity, Oryza sativa, Transplanted ([1]; 80 g/ha) | pest or weed control at 5 g/ha [2, 4] | pest or weed control at 5 g/ha [2, 5] | pest or weed control at 10 g/ha [2, 4] | pest or weed control at 10 g/ha [2, 5] | pest or weed control at 20 g/ha [2, 6] | pest or weed control at 20 g/ha [2, 7] | pest or weed control at 30 g/ha [2, 4] | pest or weed control at 30 g/ha [2, 8] | herbicidal activity to barnyardgrass ([2]; 20 g/ha, pre- or post-emergence treatments)
COc1cc(OC)nc(NC(=O)NS(=O)(=O)c2cccnc2[C@@H](OC(=O)CO)[C@H](C)F)n1 [Com. 1] | 0% | 0% | 10% | 10% | 30% | 10% | 30% | 20% | 60% | 50% | 80% | 80% | 90% | 90% | 100% | 90% | –
COc1cc(OC)nc(NC(=O)NS(=O)(=O)c2cccnc2[C@@H](OC(=O)CCO)[C@H](C)F)n1 [Com. 3] | 0% | 5% | 10% | 10% | 30% | 20% | 30% | 20% | 60% | 60% | 80% | 90% | 90% | 95% | 100% | 100% | –
COCC(=O)O[C@H](c1nccc(Cl)c1S(=O)(=O)NC(=O)Nc1nc(OC)cc(OC)n1)[C@H](C)F [Com. 5] | 0% | 0% | 10% | 0% | 20% | 0% | 30% | 20% | 60% | 50% | 70% | 80% | 90% | 90% | 100% | 100% | –
COCC(=O)O[C@H](c1nccc(Br)c1S(=O)(=O)NC(=O)Nc1nc(OC)cc(OC)n1)[C@H](C)F [Com. 6] | 0% | 0% | 0% | 0% | 10% | 0% | 20% | 20% | 50% | 60% | 70% | 80% | 90% | 100% | 100% | 100% | –
COCC(=O)O[C@H](c1nccc(C)c1S(=O)(=O)NC(=O)Nc1nc(OC)cc(OC)n1)[C@H](C)F [Com. 7] | 0% | 0% | 0% | 0% | 20% | 10% | 30% | 20% | 50% | 60% | 80% | 80% | 95% | 90% | 100% | 100% | –
COc1cc(OC)nc(NC(=O)NS(=O)(=O)c2ccccc2[C@@H](O)[C@H](C)F)n1 [Standard Compound A, reference compound] | 40% | 20% | 40% | 30% | 50% | 40% | 80% | 70% | 60% | 60% | 90% | 100% | 95% | 100% | 100% | 100% | –
COc1cc(OC)nc(NC(=O)NS(=O)(=O)c2ccccc2[C@@H](OC(C)=O)[C@H](C)F)n1 [Standard Compound B, reference compound] | 30% | 20% | 40% | 20% | 50% | 40% | 70% | 60% | 50% | 50% | 90% | 100% | 90% | 100% | 100% | 100% | –
COc1cc(OC)nc(NC(=O)NS(=O)(=O)c2cccnc2[C@@H](O)[C@H](C)F)n1 [Standard Compound C, reference compound] | 10% | 10% | 20% | 20% | 30% | 30% | 70% | 50% | 60% | 40% | 90% | 100% | 100% | 100% | 100% | 100% | –
COc1cc(OC)nc(NC(=O)NS(=O)(=O)c2cccnc2[C@@H](OC(C)=O)[C@H](C)F)n1 [Standard Compound D, reference compound] | 10% | 0% | 20% | 10% | 30% | 20% | 60% | 50% | 50% | 30% | 90% | 100% | 100% | 100% | 100% | 100% | –
CCOC(=O)c1cnn(C)c1S(=O)(=O)NC(=O)Nc1nc(OC)cc(OC)n1 [Standard Compound E, Pyrazosulfuron-ethyl, reference compound] | 0% | 0% | 10% | 0% | 20% | 0% | 30% | 10% | 0% | 0% | 0% | 10% | 0% | 20% | 20% | 30% | 10%
